Test [1] has as its system late INa in isolated murine ventricular myocytes. Put plainly: Voltage-clamp determination of sodium current (late INa). The class given is cell-based, mouse. On the set-up: late INa (integrated from 5% of peak current to 40 ms after depolarization): unit not given here. To be noted: 10 μmol/L ranolazine extracellular; for late INa (integrated from 5% of peak current to 40 ms after depolarization): 15 min. How it is done: Electrophysiological determination of sodium current: Voltage-clamp experiments were performed on isolated murine ventricular myocytes with an Axopatch 200B amplifier (Molecular Devices, Sunnyvale, Calif.) in whole cell configuration. Data acquisition was performed at a sampling rate of 20 kHz and filtered at 10 kHz. Data recording and analysis were done with the pClamp8 software suite (Molecular Devices) and OriginPro 8 (Originlab, Northampton, Mass.). All experiments were carried out at room temperature. Myocytes were plated on glass cover slips and were perfused with a low-sodium Tyrode solution containing the following (in mM): N-methyl-D-glucamine 100 (titrated to pH 7.4 with HCl), NaCl 15, tetramethylammonium chloride 20, CsC15, MgCl2 1, glucose 10, 4-aminopyridine 3, MnCl2 2, HEPES10, and CaCl2 1 (final pH 7.4, CsOH). Patch electrodes were pulled from capillaries purchased from Harvard Apparatus (Holliston, Mass.) using a model P-97 puller from Sutter Instruments (Novato, Calif.). Electrodes were filled with an electrode solution containing (in mM): CsCl 20, tetraethylammonium chloride 20, glutamic acid 80, NaCl 10, MgCl2 1, MgATP 5, Li2GTP 0.3, HEPES10, EGTA 10, CaCl2 0.13 (corresponding to [Ca^2+]free of <10 nM).^23 Electrode solution pH was adjusted to 7.2 with CsOH. Electrodes used for these experiments had access resistances between 1.0 and 1.5 MΩ.
Ranolazine was provided as a crystalline solid by Gilead Sciences. Prior to experiments, a DMSO stock solution was prepared and diluted (minimum 100:1) directly into the Tyrode solution used for perfusion. Cells that were treated with ranolazine were exposed to the drug for 15 min prior to beginning voltage-clamp experiments.
Voltage clamping studies: Voltage-clamp experiments were performed on isolated murine ventricular myocytes with an Axopatch 200B amplifier (Molecular Devices, Sunnyvale, Calif.) in whole cell configuration. Data acquisition was performed at a sampling rate of 20 kHz and filtered at 10 kHz. […]

A further test concerns DOCA-salt and sham mice. Put plainly: Noninvasive echocardiographic assessment of diastolic dysfunction, acute ranolazine. The format is in vivo, mouse. To be noted: 30 mg/kg ranolazine intraperitoneal; for E/A, early to late diastolic filling velocity / E/E′ / E′, early septal mitral annulus velocity (TDI) / E′/A′ / Sm, systolic septal mitral annulus velocity (TDI): 30 min; for EF, ejection fraction (Table 3) / FS, fractional shortening: echocardiogram 30 min later. How it is done: Generation of DOCA-salt mouse model: Previously, it was shown that this model leads to mild hypertension, myocardial oxidative stress, and diastolic dysfunction.^20 A gradual and mild elevation in blood pressure was induced by unilateral nephrectomy, subcutaneous implantation of a controlled release deoxycorticosterone acetate (DOCA) pellet (0.7 mg/d; Innovative Research of America, Sarasota, Fla.), and substituting drinking water with 1.05% saline. Control animals underwent a sham operation, had placebo pellet implantation, and received water without salt. Noninvasive assessment of diastolic dysfunction: Mice were anesthetized, maintained at 37° C., and studied by echocardiography (Vevo 770, VisualSonics Inc, Toronto, Canada). M-mode images in the parasternal long axis and the left ventricle (LV) short-axis views at the mid-papillary level. Measurements were averaged from three consecutive beats during expiration. LV inflow velocities (E and A waves) were interrogated by conventional pulsed-wave Doppler from the apical four-chamber view. The mitral annulus longitudinal velocities (Sm, E′, and A′) were determined by pulsed-wave tissue Doppler from the apical four-chamber view. Interpretation was done by two investigators blinded to the treatment groups. First, baseline images were acquired. Subsequently, the mice were injected with 30 mg/kg ranolazine by intraperitoneal route, followed by a second echocardiogram 30 min later. Previously, we have shown that this model leads to mild hypertension, myocardial oxidative stress, and diastolic dysfunction.^20 A gradual and mild elevation in blood pressure was induced by unilateral nephrectomy, subcutaneous implantation of a controlled release deoxycorticosterone acetate (DOCA) pellet (0.7 mg/d; Innovative Research of America, Sarasota, Fla.), and substituting drinking water with 1.05% saline. Control animals underwent a sham operation, had placebo pellet implantation, and received water without salt. Mice were anesthetized, maintained at 37° C., and studied by echocardiography (Vevo 770, VisualSonics Inc, Toronto, Canada). M-mode images in the parasternal long axis and the left ventricle (LV) short-axis views at the mid-papillary level were taken. Measurements were averaged from three consecutive beats during expiration. LV inflow velocities (E and A waves) were interrogated by conventional pulsed-wave Doppler from the apical four-chamber view. The mitral annulus longitudinal velocities (Sm, E′, and A′) were determined by pulsed-wave tissue Doppler from the apical four-chamber view. Interpretation was done by a two investigators blinded to the treatment groups. First, baseline images were acquired. Subsequently to determine the acute effect, the mice were injected with 30 mg/kg ranolazine by intraperitoneal route, followed by a second echocardiogram 30 min later.

SMILES strings stand for the structures. Where “and” joins values, the source holds several entries; their conditions need not be identical. Equal entries are not always repeated.

With `COc1ccccc1OCC(O)CN1CCN(CC(=O)Nc2c(C)cccc2C)CC1` (centres unmarked) [ranolazine], in test [1] (DOCA-salt cardiomyocytes), the late accumulated charge entry is given as “did not affect the late accumulated charge”. For the same compound, in test [1] (DOCA-salt myocytes), the “late INa (integrated from 5% of peak current to 40 ms after depolarization)” value is 0.1142±0.01272 and 0.114±0.013. Besides, the “late INa (integrated from 5% of peak current to 40 ms after depolarization)” value in test [1] (sham myocytes) was 0.1126±0.00406 and 0.113±0.004. In addition, in the test on DOCA-salt and sham mice (DOCA-salt mice), the “E/A, early to late diastolic filling velocity” value is reported as 1.62 ± 0.11; the “E/E′” value was determined as 31.9 ± 2.6; the “E′, early septal mitral annulus velocity (TDI)” value came out at 2.47 ± 0.18 cm/s; the “E′/A′” value amounted to 1.31 ± 0.11. Moreover, in the test on DOCA-salt and sham mice (DOCA-salt mice), the “Sm, systolic septal mitral annulus velocity (TDI)” value came out at 2.15 ± 0.14 cm/s; the “EF, ejection fraction (Table 3)” value was 46.9 ± 1.6%; the “FS, fractional shortening” value is recorded as 46.9 ± 1.6%. For the same compound, in the test on DOCA-salt and sham mice (sham mice), the “E/A, early to late diastolic filling velocity” value stood at 1.63 ± 0.07; the “E/E′” value was 30.2 ± 1.9; the “E′, early septal mitral annulus velocity (TDI)” value came to 2.67 ± 0.11 cm/s; the “E′/A′” value is listed as 1.16 ± 0.02. For the same compound, in the test with DOCA-salt and sham mice (sham mice), the “Sm, systolic septal mitral annulus velocity (TDI)” value came to 2.31 ± 0.09 cm/s; the “EF, ejection fraction (Table 3)” value is 52.8 ± 0.8 %; the “FS, fractional shortening” value is recorded as 52.8 ± 0.8%.

Source of the values: patent US20120214818A1, “METHODS OF TREATING DIASTOLIC DYSFUNCTION AND RELATED CONDITIONS” (THE BOARD OF TRUSTEES OF THE UNIVERSITY OF ILLINOIS, priority 2009, published 2012).
